Results from patent publication US11976042B1, “9-(5-bromo-2-hydroxyphenyl)-10-[3-(dimethylamino)propyl]-3,4,6,7,9,10-hexahydroacridine-1,8(2H,5H)-dione as an antimicrobial compound” (KING FAISAL UNIVERSITY, priority 2023, dated 2024).

Columns and labels:
Assay in all cases: antimicrobial activity by agar dilution
Assay type in all cases: cell-based
Conditions in all cases: after 10, 20, 40 and 60 minutes at all dilutions 1:100 to 1:800
St. Aereus = tested on: St. Aereus
Description: (§1) The antimicrobial properties of the synthesized compound 9-(5-bromo-2-hydroxyphenyl)-10-[3-(dimethylamino)propyl]-3,4,6,7,9,10-hexahydroacridine-1,8(2H,5H)-dione were studied by the method of agar dilution. Test solutions of each compound were prepared in a concentration of 1% using dimethylformamide as a solvent. Then they were diluted in a physiological solution to obtain the final experimental dilutions 1:100, 1:200, 1:400, and 1:800. The effect of these substances were compared with furacillin in a controllable study. The testing microbes used were gram positive bacteria St. Aereus, gram negative bacteria E. Coli and Ps. Aeruginosa, and Candida albicans fungi. The experiments used for this survey were meat-pentonlu agar (EPA) for cultivation of bacteria and Saburo environment for fungi. Each experiment used 1 ml of test solution on each plate 500 min. Add 2 drops of emulsified with microbes feel. All experimental samples were taken from the agar after 10, 20, 40, 60 minutes in the environment on the basis of Patrk planted. Bacteria were cultivated at a temperature of 37° C. for 1 day and the mushroom was kept in a thermostat for […] at a temperature of 28° C. Then the results were checked.

Candida albicans = tested on: Candida albicans
Description: as §1

Ps. Aeruginosa = tested on: Ps. Aeruginosa
Description: as §1

E. Coli = tested on: E. Coli
Description: as §1

Measured: inhibition activity

CN(C)CCCN1C2=C(C(=O)CCC2)C(c2cc(Br)ccc2O)C2=C1CCCC2=O [9-(5-bromo-2-hydroxyphenyl)-10-[3-(dimethylamino)propyl]-3,4,6,7,9,10-hexahydroacridine-1,8(2H,5H)-dione]
highest inhibition activity: all assays above
